# Experimental data from patent publication US6506880B2, “Synthetic peptides that enhance atherogenic lipoprotein uptake and lower plasma cholesterol” (The UAB Research Foundation, priority 1998, dated 2003).
# Key:
# [1] = Circular dichroic spectrometry, percent helicity of peptides; assay type: physicochemical; details: for Percent Helicity, Peptide: peptide alone, 100 μM in PBS, pH 7.4, 25° C.; for Percent Helicity, Peptide/DMPC (1:20): peptide-DMPC complex 1:20 m/m
# Protocol: Circular dichroic spectra were recorded on a signal averaging AVIV 62DS spectropolarimeter as described earlier (18). Briefly, circular dichroic spectra were obtained at 25° C. by signal averaging of four scans recorded every nm from 260 nm to 190 nm using a cell with a 0.01 cm path length Peptide concentrations in PBS, pH 7.4, used were 100 μM. Peptide-DMPC complexes (1:20 m/m) were prepared as described (18) and the change in peptide helicity upon lipid association measured. The helical content of the peptides was estimated from the mean residue ellipticity, [θ]MRE (deg.cm^2.dmol^−1) at 222 nm using the equations as detailed by Morrisett et al.(23).
# MEF1 cells [2] = assay: Internalization (uptake) and binding of 125I-LDL by mouse embryonic fibroblasts; assay type: cell-based; details: for Enhancement of LDL uptake (in words): mouse fibroblasts, results not shown
# Protocol: The binding, internalization and degradation of LDL/VLDL in fibroblasts were measured using the method of Goldstein et. al. (20). All cells were grown in DMEM medium in 6-well plates and used at 75-90% confluence was reached. The seeding density of cells used was between 1.5×10^5 and 3.0×10^5 cells/ml medium. Cells were incubated with DMEM medium containing LPDS 24 hours prior to use to upregulate LDL receptors. […] Non-specific binding was determined in the presence of 50 fold excess unlabelled LDL/VLDL with or without peptides. After washing with ice cold PBS (containing BSA 2 mg/ml), to remove excess free labeled lipoprotein, the cells were incubated with dextran sulfate (4 mg/ml, Pharmacia, Mr 500,000) or heparin (Sigma Chemical Co., 10 mg/ml) for 1 h to release spcifically bound ^125I-LDL/^125I-VLDL, and washed with cold PBS. The counts in the dextran sulfate wash reflect the amount of LDL/VLDL bound to cells.
# The cells were dissolved in 0.1 N NaOH and a 0.5 ml aliquot of cell suspension was counted. These counts reflect the amount of LDL/VLDL internalized. Protein was estimated by the method of Lowry. Degradation of LDL/VLDL were studied using the protocol described above for 4° C., except that the cells were incubated at 37° C. for 5 hours. Degradation was determined by precipitating the unbound ^125I-LDL/^125I-VLDL from the medium with 50% TCA (0.5 ml of 50% TCA was added to 1 ml of medium) and incubating at 4° C. for 30 minutes (20). The precipitate was removed by centrifugation. The supernatant was treated with 10 μl of 40% potassium iodide and 40 μl of 30% hydrogen peroxide. The free ^125I liberated was extracted with 2 ml of chloroform. The upper aqueous layer (0.5 ml) was then counted. This represented the amount of ^125I-monoiodotyrosine produced by the degradation of apoB in LDL/VLDL.
# (§1) Heparinase and heparitinase treatment of cells was carried out as follows. The cells were treated with heparinase and heparitinase (Sigma Chemical Co.) at a concentration of 3 U/ml of media for 2 hours at 37° C. These experiments were carried out using human and mouse fibroblasts as well as HepG2 cells. Mouse embryonic fibroblasts (MEF1), the LRP deficient mutant (PEA13) and the LRP/LDL double mutant (MEF4) were (obtained from ATCC ) used to identify the possible mechanism involved. In all the cell experiments, the average value of triplicates was used.
# The effect of the peptide was studied in two ways: (a) the peptide was added to the cell media directly after adding LDL and (b) it was first incubated with LDL for 1 h at room temperature and the coincubated mixture was added to the cells after filtering through a 0.221μ filter. The peptide-LDL “complex” or modified LDL appears to enhance the uptake of ^125I-LDL much more than the peptide by itself (results not shown). […]
# MEF1 cells [3] = assay: Effect of heparinase/heparitinase treatment of cells on peptide-mediated LDL internalization; assay type: cell-based, mouse; details: heparinase and heparitinase 0.5 units each/ml
# Protocol: MEF1 cells were pretreated with heparinase/heparitinase(3U/ml) for 2 hours at 37° C. and then incubated with ^1251I-LDL-peptide for 2 hours at 37° C. The black bars represent internalization without heparinase/heparitinase treatment while the speckled bars represent internalization after pretreatment with heparinase/heparitinase.
# as §1
# A possible high capacity, low affinity pathway has been previously identified for lipoprotein binding and uptake. Heparan sulfate proteoglycans (HSPG) bind and take up apo E-enriched lipoproteins (27). […] These apo E mimicking peptides could modify LDL and be taken up through heparan sulfate proteoglycans. Therefore, the cells were treated with heparinase and heparitinase (0.5 units each/ml).
# HepG2 cells [4] = assay: Uptake of 125I-VLDL-peptide complex by HepG2 cells; assay type: cell-based
# HepG2 cells [5] = assay: Degradation of 125I-VLDL-peptide complex by HepG2 cells; assay type: cell-based
# Protocol: […] was used as a control. ^125I-VLDL was incubated with Ac-hE18A-NH2 (1:1 w/w) and reisolated by density centrifugation. The peptide bound to ^125I-VLDL floated to the top while the unbound peptide was at the bottom. The ^125I-VLDL-peptide complex was used to determine the effect of the peptide on the uptake and degradation of ^125I-VLDL. The first bar: ^125I-VLDL alone; the second bar: ^125VLDL-Ac-18A-NH2 (1:1 w/w); the third bar: VLDL-Ac-hE18A-NH2 (1:1 w/w). The data represent an average of triplicate values.
# The binding, internalization and degradation of LDL/VLDL in fibroblasts were measured using the method of Goldstein et. al. (20). All cells were grown in DMEM medium in 6-well plates and used at 75-90% confluence was reached. The seeding density of cells used was between 1.5×10^5 and 3.0×10^5 cells/ml medium. Cells were incubated with DMEM medium containing LPDS 24 hours prior to use to upregulate LDL receptors. […] Non-specific binding was determined in the presence of 50 fold excess unlabelled LDL/VLDL with or without peptides. […]
# The cells were dissolved in 0.1 N NaOH and a 0.5 ml aliquot of cell suspension was counted. […] Degradation was determined by precipitating the unbound ^125I-LDL/^125I-VLDL from the medium with 50% TCA (0.5 ml of 50% TCA was added to 1 ml of medium) and incubating at 4° C. for 30 minutes (20). […] The upper aqueous layer (0.5 ml) was then counted. […]
# [6] = system: apo E-gene knock out mice; assay: Intravenous administration of peptide, plasma cholesterol (CLiP); assay type: in vivo, mouse
# Protocol: Female apo E knockout mice were injected through the tail vein with ^125I-Ac-hE18A-NH2 (50 μg in 100 μl PBS). Blood samples were taken by retro-orbital bleeding at baseline (0 h) and at 2 minutes and 6 hours following injection. Success of injection was determined by measuring radioactivity in the 2 minutes sample and calculating total plasma peptide by specific radioactivity of the peptide, assuming total plasma volume=4.2% of body weight.
# 50 μg of the ^125I-labeled peptide was injected into the tail vein into female apo E-gene knock out mice. Blood was drawn by retro-orbital bleeding immediately before injection (time 0), and at two minutes and 6 hours following the injection. Success of injections was determined by measuring the plasma radioactivity in the two minute sample; the total plasma peptide at two minutes was determined from the specific activity of the injected peptide and the radioactivity present in the plasma. Total plasma volume was assumed to be 4.2% of body weight. Plasma cholesterol profiles were determined on 5 μl of 0 h and 6 h samples by the CLiP method.
# CLiP were determined using a modification of a previously described method for the semi-automated cholesterol profiling of lipoproteins by column chromatography (31). The apparatus consisted of two biocompatible HPLC pumps, an injector Pharmacia), a post-column reactor, a 30×1 cm Superose 6 column, and a spectrophotometric detector reading at 500 nm. Plasma samples were injected onto the Superose 6 column. Immediately after the column, cholesterol reagent (Cholesterol 1000, Pharmacia) was mixed with the column eluent through a low-dead-volume mixing tee, and the mixture entered a heating block (set at […]). Outflow from the heating block entered the spectrophotometric detector, and the cholesterol profile was collected through an A/D board and the digitized profile stored in a computer.
# To determine the effect of peptide Ac-hE18A-NH2 in clearing the plasma cholesterol, 14 μg to 33 μg of the peptide were administered into six apo E(-/-) animals. In every case, the plasma cholesterol levels decreased. […]
# [7] = apo E(-/-) mice, intravenous, 6 hours
substance,measurement,setting,value
Ac-hE18A-NH2: end protected analog of hE18A (acetyl and amino groups) (Ac-LRKLRKRLLRDWLKAFYDKVAEKLKEAF-NH2),"Percent Helicity, Peptide",[1],69.3%
same,"Percent Helicity, Peptide/DMPC (1:20)",[1],74.3%
same,Effectiveness in LDL internalization of protected peptide relative to free peptide,"MEF1 cells [2]; 10 μg peptide, LDL 10 μg, versus corresponding unprotected peptide",5 times
same,Enhancement of LDL internalization,"MEF1 cells [2]; MEF1 cells with induced LDL receptors, 125I-LDL 10 μg + peptide 10 μg, 2 hours at 37° C.",five
same,Reduction of uptake of peptide treated LDL by heparinase/heparitinase,MEF1 cells [3],~50%
same,Enhancement of uptake of VLDL compared to VLDL alone,HepG2 cells [4]; peptide-associated VLDL,six
same,Enhancement of degradation of VLDL by HepG2 cells,"HepG2 cells [5]; VLDL-peptide 1:1 w/w, versus control",three
same,Enhancement of degradation of VLDL compared to VLDL alone,HepG2 cells [5]; peptide-associated VLDL,three
same,Reduction of total cholesterol,"[6]; FIG. 10B, plasma cholesterol profile at 6 hours vs baseline, single animal",> 50%
same,HDL cholesterol,[6]; [7],unchanged
same,VLDL and LDL cholesterol levels,[6]; [7],lowered
"LRKLRKRLLR-18A (LRKLRKRLLRDWLKAFYDKVAEKLKEAF) [hE-18A, 141-150 region of human apo E linked to class A amphipathic helical peptide 18A]","Percent Helicity, Peptide",[1],36.0%
same,"Percent Helicity, Peptide",[1]; listed as hE18A,36%
same,"Percent Helicity, Peptide/DMPC (1:20)",[1],46.0%
"Ac-18A-NH2: control peptide, end protected class A amphipathic helical peptide 18A [reference compound]",Enhancement of LDL uptake (in words),MEF1 cells [2],did not enhance LDL uptake
same,Uptake of VLDL by HepG2 cells (in words),HepG2 cells [4]; VLDL-peptide 1:1 w/w,does not increase uptake of VLDL
LRKMRKRLMR-18A (DOMAIN 133..142 mouse apolipoprotein E receptor binding domain; listed as Mus sp.) [mE-18A],"Percent Helicity, Peptide",[1],36.3%
same,"Percent Helicity, Peptide",[1]; listed as mE18A,36%
same,"Percent Helicity, Peptide/DMPC (1:20)",[1],44.0%
LRKLRKRLLR [reference compound],Enhancement of LDL uptake (in words),MEF1 cells [2],did not enhance LDL uptake
"LRRLRRRLLR-18A (an analog of human apolipoprotein E receptor binding domain) [hE-(R)18A, analog of hE-18A with Lys replaced by Arg]","Percent Helicity, Peptide",[1],51.2%
same,"Percent Helicity, Peptide",[1]; listed as hE(R)18A,~50%
same,"Percent Helicity, Peptide/DMPC (1:20)",[1],70.8%
